Test results reported in ChEMBL document CHEMBL3045760, “Bioactive xanthones with effect on P-glycoprotein and prediction of intestinal absorption” (Med Chem Res, 2013).
Active and inactive are the calls of the source. The calls are words filed in the database; no cut-off is given here.

How the values were obtained:
[1] = target: T1, ATP-dependent translocase ABCB1 (Homo sapiens, UniProt P08183); test: Inhibition of P-glycoprotein in doxorubicin-resistant Homo sapiens (human) K562 cells overexpressing P-gp assessed as increase in intracellular Rh123 accumulation at 10 to 20 uM after 1 hr by flow cytometric analysis; type: cell-based; conditions: k562, 1 h
[2] = Apparent permeability from apical to basolateral side of Homo sapiens (human) Caco2 cells at 100 uM by HPLC-UV analysis; type: ADME, cell-based; conditions: Caco-2
Homo sapiens = species: Homo sapiens; test: Non-competitive inhibition of Homo sapiens (human) P-glycoprotein ATPase activity at 200 uM after 40 min by luminescence analysis
Caco-2 = test: (§1) Drug recovery in Homo sapiens (human) Caco2 cells at 100 uM by HPLC-UV analysis; type: ADME, cell-based; conditions: caco-2, 100 µM
[3] = target: T1, ATP-dependent translocase ABCB1; test: Activation of P-glycoprotein in doxorubicin-resistant Homo sapiens (human) K562 cells overexpressing P-gp assessed as decrease in intracellular Rh123 accumulation at 10 to 20 uM after 1 hr by flow cytometric analysis; type: cell-based; conditions: k562, 1 h
[4] = as §1; type: ADME, cell-based, Caco-2; conditions: Caco-2, read-out: Drug recovery

T1 sequence (P08183 whole entry): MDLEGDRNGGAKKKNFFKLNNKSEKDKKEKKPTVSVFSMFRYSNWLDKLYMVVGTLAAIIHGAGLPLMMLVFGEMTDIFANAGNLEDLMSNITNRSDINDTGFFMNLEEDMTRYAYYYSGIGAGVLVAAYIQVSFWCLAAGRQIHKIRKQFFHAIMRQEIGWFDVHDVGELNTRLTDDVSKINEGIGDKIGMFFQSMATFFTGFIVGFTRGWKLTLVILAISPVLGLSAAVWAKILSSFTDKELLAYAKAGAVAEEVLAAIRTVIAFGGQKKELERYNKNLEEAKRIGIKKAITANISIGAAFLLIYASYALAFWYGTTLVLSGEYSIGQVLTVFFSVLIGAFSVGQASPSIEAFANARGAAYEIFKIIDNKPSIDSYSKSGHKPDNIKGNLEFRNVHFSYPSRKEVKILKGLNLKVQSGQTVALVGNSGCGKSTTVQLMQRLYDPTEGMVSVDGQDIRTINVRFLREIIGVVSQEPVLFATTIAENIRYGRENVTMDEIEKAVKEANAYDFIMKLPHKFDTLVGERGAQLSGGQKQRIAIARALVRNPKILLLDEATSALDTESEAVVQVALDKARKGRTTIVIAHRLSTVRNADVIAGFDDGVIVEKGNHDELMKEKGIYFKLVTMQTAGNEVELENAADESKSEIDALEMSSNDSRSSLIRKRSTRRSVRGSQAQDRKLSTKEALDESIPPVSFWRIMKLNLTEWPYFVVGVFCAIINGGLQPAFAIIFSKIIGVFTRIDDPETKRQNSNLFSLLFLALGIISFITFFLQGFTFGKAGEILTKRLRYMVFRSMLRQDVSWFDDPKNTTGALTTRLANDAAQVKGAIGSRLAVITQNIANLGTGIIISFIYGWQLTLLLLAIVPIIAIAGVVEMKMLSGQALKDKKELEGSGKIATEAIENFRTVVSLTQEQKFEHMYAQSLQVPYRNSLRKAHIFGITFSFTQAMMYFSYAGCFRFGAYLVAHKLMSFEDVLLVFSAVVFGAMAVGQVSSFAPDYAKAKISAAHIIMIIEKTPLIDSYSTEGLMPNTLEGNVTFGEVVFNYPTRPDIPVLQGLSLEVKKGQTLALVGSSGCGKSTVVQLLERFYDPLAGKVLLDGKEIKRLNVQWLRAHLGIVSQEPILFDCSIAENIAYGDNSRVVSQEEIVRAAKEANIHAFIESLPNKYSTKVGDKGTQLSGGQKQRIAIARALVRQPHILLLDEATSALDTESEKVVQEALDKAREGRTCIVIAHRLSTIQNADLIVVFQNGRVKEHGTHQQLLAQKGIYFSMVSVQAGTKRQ

Compound	inhibition (INH) [1]	Papp A→B at 100 µM [2] [×10⁻⁶ cm/s]	inhibition (Homo sapiens)	Drug recovery (Caco-2) [%]	Activity [3]	recovery at 100 µM [4] [%]
COc1ccc(CCN(C)CCCC(C#N)(c2ccc(OC)c(OC)c2)C(C)C)cc1OC (stereo not given)	Active					
COc1cc(C2Oc3ccc4c(=O)c5ccccc5oc4c3OC2CO)ccc1O (stereo not given)	Active	14.4	Active	164.7		
CC1(C)CCc2cc3c(=O)c4ccccc4oc3c(O)c2O1	Active	14.2	Active			29.4

Results, then the molecule that gave them:

inhibition (INH) [1]	Papp A→B at 100 µM [2] [×10⁻⁶ cm/s]	inhibition (Homo sapiens)	Drug recovery (Caco-2) [%]	Activity [3]	recovery at 100 µM [4] [%]	Compound
	15.2			Active	40.7	O=c1c2ccccc2oc2ccc(O)c(O)c12
	19.4			Active	53.6	O=c1c2ccccc2oc2c(O)c(O)ccc12 [3,4-DIHYDROXYXANTHONE]
